Experimental data taken from patent US20240115530A1, “ADMINISTRATION OF BAIBA TO INCREASE BENEFIT OF LOSING WEIGHT OF INTERMITTENT FASTING” (NANJING NUTRABUILDING BIO-TECH CO., LTD., priority 2021, published 2024).

Experiments:
Format in all cases: in vivo, C57BL/6 male mice
[1] = Blood lipid biochemistry (TG, TCHO, LDL, VLDL) in HFD-fed obese mice; conditions: 150 mg/kg daily per oral, end of study, with or without EODF, vs same regimen without L-BAIBA
Description: (§1) Each study group consisted of ten animals, and treatment details of the individual study groups are given below: • Group A (GA, NC): Normal mice, maintained on normal diet for 11 weeks, receiving neither EODF nor L-BAIBA treatment. • Group B1 (GB1, HFD): Obese mice, maintained on high fat diet (HFD) for 11 weeks, receiving neither EODF nor L-BAIBA treatment. • Group B2 (GB2, HFD+EODF): Obese mice, maintained on HFD for 11 weeks, receiving only EODF and no L-BAIBA treatment. • Group B3 (GB3, HFD+BAIBA): Obese mice, maintained on HFD for 11 weeks, receiving only L-BAIBA treatment and no EODF. • Group B4 (GB4, HFD+EODF+BAIBA): Obese mice, maintained on HFD for 11 weeks, receiving L-BAIBA treatment and EODF combination.
(§2) L-BAIBA was administered daily via per oral route according to a level of 150 mg/kg body weight. Animals not receiving L-BAIBA were given orally with ultrapure water.
Intermittent fasting model: HFD fed male mice in groups at 8 weeks of age were randomly assigned into either ad libitum, or every-other-day-fasting (EODF) groups on a per cage basis. All cage bedding was changed to paper bedding for the duration of the model. Mice in the EODF group had total deprivation of food and ad libitum access to water from 1200 h-1200 h on alternate days with ad libitum food and water access. EODF cages were changed upon induction of fasting. Ad libitum control mice cages were changed every other day with fresh food provided.
50 C57BL/6 male mice aged about 8 weeks, are randomly assigned to five study groups (GA, GB1, GB2, GB3, GB4) of ten mice each (two cages, 1 cage, n=5 per condition).
The same procedures were conducted as above-discussed Example 1.
At the end of the study, blood was collected from all test groups and a various clinical parameter were determined: triglyceride (TG), total cholesterol (TCHO), low-density lipoprotein (LDL) and very low-density lipoprotein (VLDL). FIG. 2a-2d are the results of TG, TCHO, LDL and VLDL in all test groups, respectively. […] This effect persists for as long as the test protocol is continued.

[2] = Body weight reduction in HFD-fed obese mice with or without EODF; conditions: 150 mg/kg daily per oral, 8-week treatment, vs same regimen without L-BAIBA
Experimental: 50 C57BL/6 male mice aged about 8 weeks, are randomly assigned to five study groups (GA, GB1, GB2, GB3, GB4) of ten mice each (two cages, 1 cage, n=5 per condition). Each animal's body weight is measured by a weight scale and recorded.
The total experimental time is 19 weeks, including two periods: an eleven-week induction period and a subsequent eight-week treatment period.
as §1
L-BAIBA was administered daily via per oral route according to a level of 150 mg/kg body weight. […]
Each mouse's body weight is measured weekly during the study at 1200 h. FIG. 1 is the average body weight of mice in all test groups (Body weight were recorded from the beginning of the experiment). […]

[3] = Blood glucose and oral glucose tolerance test (OGTT) in HFD-fed obese mice; conditions: 150 mg/kg daily per oral, vs same regimen without L-BAIBA
Description: as §1, §2
(§3) Intermittent fasting model: HFD fed male mice in groups at 8 weeks of age were randomly assigned into either ad libitum, or every-other-day-fasting (EODF) groups on a per cage basis. All cage bedding was changed to paper bedding for the duration of the model. […]
Glucose levels in blood were measured weekly (week 12-19) on the starting day of every week before the day's EODF and L-BAIBA dosing activities. […]

[4] = Serum insulin and leptin by ELISA in HFD-fed obese mice; conditions: 150 mg/kg daily per oral, end of treatment period, with or without EODF, vs same regimen without L-BAIBA
Description: as §1, §2, §3
Serum levels of insulin and leptin were determined at the end of the treatment period by standard ELISA methods. […]

C[C@@H](CN)C(=O)O [L-BAIBA, L-β-aminoisobutyric acid]
low-density lipoprotein (LDL) level in blood [1]: lower levels | total cholesterol (TCHO) level in blood [1]: lower levels | triglyceride (TG) level in blood [1]: lower levels | very low-density lipoprotein (VLDL) level in blood [1]: lower levels | body weight [2]: greater reduction in body weight | glucose tolerance (OGTT) ([3]; OGTT after the treatment period, with or without EODF): better glucose tolerance | blood glucose level ([3]; measured weekly week 12-19, with or without EODF): greater reduction in blood glucose level | insulin resistance (serum insulin) [4]: improved | leptin resistance (serum leptin) [4]: improved leptin resistance
